# Experimental data taken from patent US20230190689A1, “METHODS AND COMPOSITIONS FOR INDUCING BROWN ADIPOGENESIS” (ENERGESIS PHARMACEUTICALS, INC., priority 2020, published 2023).
# Where a name gives a salt, the structure may show the parent alone.
# Experiments:
# [1] = test system: CD34+ brown adipocyte progenitor cells; assay: Multiplexed TaqMan real-time PCR of UCP1 and PPARγ2 mRNA (normalized to cyclophilin A) to quantify differentiation of CD34+ cells into brown adipocytes; format: cell-based, human; conditions: in vitro; first screen at 10 μM, actives retested at 1 nM to 50 μM
# Excerpt: A robust method, previously disclosed, was used for detection of CD34+ cell differentiation into brown adipocytes by simultaneously quantifying mRNA species corresponding to the brown adipocyte marker UCP1, the adipocyte marker PPARγ2, and the “housekeeping” gene cyclophilin A which was used as the internal control.
# This method permits analysis of a large number of samples to identify agents that enhance the differentiation of CD34+ cells into brown adipocytes. When differentiated into brown adipocytes, CD34+ cells express much higher levels of UCP1 and PPARγ2 mRNA for a given level of cyclophilin A. UCP1 and PPARγ2 mRNA levels normalized to cyclophilin A mRNA levels give an indication of the level of differentiation of the CD34+ cells into brown adipocytes, independent of the total number of cells in the sample.
# Quantification of UCP1, PPARγ2 and cyclophilin A mRNA by multiplexed TaqMan real-time PCR was thus used to quantify differentiation of the CD34+ cells into brown adipocytes.
# UCP1 is the key protein in brown adipocytes responsible for uncoupled respiration and is also highly specific for brown adipocyte differentiation. It is expressed exclusively by fully differentiated brown adipocytes and not by the CD34+ progenitor cells. We used a real-time semi-quantitative RT PCR-based assay for detection of UCP1 expression, in order to screen for brown adipocyte recruiters. […] The assay has the added advantage of allowing light microscopic visualization of the distinct morphological changes accompanying differentiation into brown adipocytes. This serves as further confirmation of differentiation.
# (§1) Cells were seeded at 10,000 per cm^2 (48-well tissue culture, Chemglass #CLS-3500-048), cultured until confluency (1-4 days) at 37° C. in Endothelial cell growth medium-2 (EGM2) (BulletKit growth medium, Lonza #CC-3162) and until differentiation (6-12 more days). After 1-4 days in EGM2 media the cells were incubated with test agents (or positive controls) for 2-3 days (from day −3 or −2 to day 0). Rosiglitazone (1 μM) and rhBMP7 (6.3 nM) were used as reference agents (positive controls). Then (on day 0) the culture media (containing the test agents or positive controls) was removed, and minimal adipogenic medium (MDM) was added and the cells were left to differentiate of 6-12 days. The MDM media is a modification of the adipogenic media described by Rodriguez et al., and contains: DMEM/Ham's F-12 50/50 Mix (3.151 g/1, 17.5 mM D-glucose, 3.651 g/l L-glutamine) (Cellgro #10-090-CV), 5 μg/ml (0.86 μM) insulin, 1 μM dexamethasone, 100 μM 3-isobutyl-1-methylxanthine, 0.2 nM 3,3′,5-triiodo-L-thyronine, 10 μg/ml (127 nM) transferrin, and 1% penicillin-streptomycin. Adipocyte scores were determined by light microscopy and defined as the number of cells, on a per well basis, that contain multilocular lipid droplets, at the end of the differentiation of the cells, approximately 6 to 12 days following the end of compound treatment and switch into MDM media.
# Total RNA was prepared from cells using PureLink RNA Isolation Kit (Invitrogen #12183-016). Alternatively, cells were simply lyzed by freezing (−80° C.). First strand cDNA were synthesized using the High Capacity cDNA Reverse Transcription kit (Applied Biosystems, Foster City, Calif.) and random primers.
# Quantitative real-time PCR was performed using an Applied Biosystems StepOnePlus™ instrument, TaqMan Gene Expression Master Mix (Applied Biosystems #4369016), and custom TaqMan gene expression probes and primers for human uncoupling protein-1 “UCP1” (GenBank NM_021833) and for human peptidylprolyl isomerase A “cyclophilin A” (GenBank NM_021130).
# Cyclophilin A was used as a control to account for any variations due to the efficiency of reverse transcription. Arbitrary units were determined by normalizing target mRNA levels to cyclophilin A mRNA levels (based on Cts).
# CD34+ cells [2] = assay: Quantification of UCP1 protein by fluorescence immunohistochemistry (IHC); format: cell-based, human
# Protocol: Culturing and differentiation of CD34+ cells into brown adipocytes were performed using adipogenic differentiation medium lacking (Minimal Differentiation Medium, MDM) or containing 1 μM rosiglitazone (Reference Differentiation Medium, RDM). After 15 days of differentiation cells were fixed with 4% Paraformaldehyde PBS pH 7.4, and incubated with a UCP1 antibody (Abcam ab23841) and Alexafluor 488 goat anti-rabbit antibody to quantify relative UCP1 levels (green) according to standard protocols. Prior to fixation of cells, nuclei were labeled with 5 μM DAPI (blue) for 10 minutes. Each treatment condition was evaluated in triplicate in a 96-well plate corresponding to approximately 360-480 cells for each data point in total. The InCell 1000 Developer Toolbox software was used to develop an automated cell detection script to measure UCP1 signal intensity, using the nuclei and cytoplasm detection algorithms. As a readout, total intensity of UCP1 signal within the cell was used, normalized to cell number.
# CD34+ cells [3] = assay: Light microscopy of CD34+ cells for brown adipocyte differentiation (multilocular lipid-containing cells); format: cell-based, human; conditions: CD34+ cells 6 days following the end of compound treatment and switch into MDM media
# Protocol: as §1
# Pictures of cells were taken using a hand-held digital camera (Nikon Coolpix 950) and inverted microscope (Nikon TMS) used for cell culture observations; images were optimized using Paint.net version 4.0 functions for Auto-Level Brightness and Contrast.
# DIO mice = assay: DIO mouse study of metabolic health, once-daily oral gavage for 28 to 56 days; format: in vivo, C57Bl/6 mice; conditions: oral gavage once a day, bezafibrate 60 mg/kg, oxaprozin 50 mg/kg, vs vehicle
# Protocol: Obesity and insulin resistance, an early stage in the development of type 2 diabetes (or pre-diabetes), was induced in C57Bl/6 mice by feeding the mice with a high fat diet (Research diet, Cat #D12492, 60/a fat kcal) for 12 weeks starting at 6 weeks of age. The mice were maintained at 22-23° C. with abundant bedding material, maintaining the animals in an environmental temperature close to their thermoneutrality, starting 2 weeks prior to the dosing period and for the full dosing period with a 12 h/12 h light/dark cycle.
# Mice were dosed once per day by oral gavage (200 μl per mouse), first for 3 days with the vehicle (PBS+0.5% CMC+0.1% Tween-80) as acclimation for running into the study, then with either vehicle alone or testing material dissolved in the vehicle for […] (4 to 8 weeks).
# Body weight was recorded every 3 days, body composition (fat and lean mass with EchoMRI) was assessed at the end of the study (University of Cincinnati Mouse Metabolic Phenotyping Center), blood glucose level (measured with a glucometer) was monitored 3-5 days before (baseline) and at the end of the dosing period.
# At the end of the dosing period, animals were fasted for 6 hours and euthanized by CO2, blood was collected, and plasma was isolated and saved at −20° C. Plasma glucose, insulin and leptin levels were assessed 3-5 days before (baseline) and at the end of the dosing period (mice were fasted for 6 hours before all plasma collection) (University of Cincinnati Mouse Metabolic Phenotyping Center). Insulin sensitivity was determined using the homeostasis model assessment of insulin resistance (HOMA-IR). HOMA-IR=(plasma insulin [microIU/ml] x plasma glucose [mM])/22.5.
# The mice were maintained on a high fat diet (60% calories from fat) throughout the study. An overnight fast was performed the last night of the study in preparation for glucose tolerance testing.
Compound,"differentiation of brown adipocyte progenitor cells into brown adipocytes, as indicated by expression of UCP1 and PPARγ2 [1]",agents identified by quantification of UCP1 protein by fluorescence IHC (CD34+ cells [2]),also measured
COc1ccc2c(c1)c(CC(=O)OCC(=O)O)c(C)n2C(=O)c1ccc(Cl)cc1 [Acemethacin],promote the differentiation of brown adipocyte progenitor cells into brown adipocytes,–,–
COc1cc2c(c(OC)c1OC)-c1ccc(OC)c(=O)cc1[C@@H](NC(C)=O)CC2 [Colchicine],–,identified using this technique,–
O=C(O)Cc1ccccc1Nc1c(Cl)cccc1Cl [Diclofenac],promote the differentiation of brown adipocyte progenitor cells into brown adipocytes,–,–
NC(N)=Nc1nc(CSCCC(N)=NS(N)(=O)=O)cs1 [Famotidine],–,identified using this technique,–
CCC1=C(C)CN(C(=O)NCCc2ccc(S(=O)(=O)NC(=O)N[C@H]3CC[C@H](C)CC3)cc2)C1=O [Glimepiride],promote the differentiation of brown adipocyte progenitor cells into brown adipocytes,–,–
N=C(N)NC(=O)Cc1c(Cl)cccc1Cl [Guanfacine hydrochloride],–,identified using this technique,–
COc1ccc2c(c1)c(CC(=O)O)c(C)n2C(=O)c1ccc(Cl)cc1 [Indomethacin],promote the differentiation of brown adipocyte progenitor cells into brown adipocytes,–,–
Cc1ccc(Cl)c(Nc2ccccc2C(=O)O)c1Cl [Meclofenamate],promote the differentiation of brown adipocyte progenitor cells into brown adipocytes,–,–
Cc1cccc(Nc2ccccc2C(=O)O)c1C [Mefenamic acid],promote the differentiation of brown adipocyte progenitor cells into brown adipocytes,–,–
CN(C)C(=N)N=C(N)N [Metformin],–,identified using this technique,–
O=C(O)c1cccnc1Nc1cccc(C(F)(F)F)c1 [Niflumic acid],promote the differentiation of brown adipocyte progenitor cells into brown adipocytes,–,–
COC(=O)[C@H]1[C@H]2C[C@@H]3c4[nH]c5cc(OC)ccc5c4CCN3C[C@H]2C[C@@H](OC(=O)c2cc(OC)c(OC)c(OC)c2)[C@@H]1OC [Reserpine],–,identified using this technique,–
O=C(CCCN1CCC2(CC1)C(=O)NCN2c1ccccc1)c1ccc(F)cc1 [Spiperone],–,identified using this technique,–
CCOC(=O)Oc1c(OC)cc(C(=O)O[C@@H]2C[C@@H]3CN4CCc5c([nH]c6cc(OC)ccc56)[C@H]4C[C@@H]3[C@H](C(=O)OC)[C@H]2OC)cc1OC [Syrosingopine],–,identified using this technique,–
CCSc1ccc2c(c1)N(CCCN1CCN(C)CC1)c1ccccc1S2 [Thiethylperazine],–,identified using this technique,–
CCN(CC)CCNC(=O)c1cc(S(C)(=O)=O)ccc1OC [Tiapride hydrochloride],–,identified using this technique,–
"CCCCC[C@H](O)/C=C/[C@H]1[C@H](O)CC(=O)[C@@H]1CCCCCCC(=O)O [alprostadil, Alprostadil]",promote the differentiation of brown adipocyte progenitor cells into brown adipocytes,–,brown adipocyte formation by light microscopy (CD34+ cells [3]): promote brown adipocyte formation
"COc1ccc2c(c1)C(=O)N(CCc1ccc(S(=O)(=O)NC(=O)NC3CCCCC3)cc1)C(=O)C2(C)C [gliquidone, Gliquidone]",promote the differentiation of brown adipocyte progenitor cells into brown adipocytes,–,brown adipocyte formation by light microscopy (CD34+ cells [3]): promote brown adipocyte formation
"O=C(O)CCc1nc(-c2ccccc2)c(-c2ccccc2)o1 [oxaprozin, 3-(4,5-Diphenyloxazol-2-yl)propionic acid]",promote the differentiation of brown adipocyte progenitor cells into brown adipocytes,–,body fat mass (DIO mice; MRI): significant decreases; body weight (DIO mice): significant decreases; glycemia (DIO mice): significant decreases; plasma insulin (DIO mice): significant decreases; plasma leptin (DIO mice): significant decreases
"O=C(O)/C=C/c1ccc(Cn2ccnc2)cc1 [ozagrel, (2E)−3-{4-[(1H-imidazol-1-yl)methyl]phenyl}prop-2-enoic acid]",promote the differentiation of brown adipocyte progenitor cells into brown adipocytes,–,brown adipocyte formation by light microscopy (CD34+ cells [3]): promote brown adipocyte formation
"CN1c2ccccc2C(NCCCCCCC(=O)O)c2ccc(Cl)cc2S1(=O)=O (centres unmarked) [tianeptine, Tianeptine]",promote the differentiation of brown adipocyte progenitor cells into brown adipocytes,–,brown adipocyte formation by light microscopy (CD34+ cells [3]): promote brown adipocyte formation
"CC(C(=O)O)c1ccc2c(c1)CC(=O)c1ccccc1S2 (centres unmarked) [zaltoprofen, 2-(6-Oxo-5H-benzo[b][1]benzothiepin-3-yl)propanoic acid]",promote the differentiation of brown adipocyte progenitor cells into brown adipocytes,–,brown adipocyte formation by light microscopy (CD34+ cells [3]): promote brown adipocyte formation
